Assay results published in paper PMC6711994 (Scientific Reports, 2019).

What was measured:
lsBSH = target: T1, lsBSH (Ligilactobacillus salivarius, UniProt J7H3P9); test: X-ray crystal structure, […] Å, crystal soaking; format: binding; settings: CA formed from soaked GCA; Cys2 oxidised (sulfonic form); active site of chains B, C, D, E, G and H
T1 construct: recombinant from E. coli JL885 (pBSH vector), purified; initiator Met removed, N-terminal nucleophile Cys2; homotetramer; Cys2 oxidised (sulfonic, OCS) in the crystal

[1] = target: bile salt hydrolase from Lactobacillus salivarius (Lactobacillus salivarius NRRL B-30514); test: crystal structure; apo lsBSH crystals (20% PEG 3,350, 0.2 M KH2PO4 pH 4.8, 20 °C) soaked with GCA for 4 h; space group P21; two tetramers in one asymmetric unit

T1 sequence (J7H3P9 entry or part of it): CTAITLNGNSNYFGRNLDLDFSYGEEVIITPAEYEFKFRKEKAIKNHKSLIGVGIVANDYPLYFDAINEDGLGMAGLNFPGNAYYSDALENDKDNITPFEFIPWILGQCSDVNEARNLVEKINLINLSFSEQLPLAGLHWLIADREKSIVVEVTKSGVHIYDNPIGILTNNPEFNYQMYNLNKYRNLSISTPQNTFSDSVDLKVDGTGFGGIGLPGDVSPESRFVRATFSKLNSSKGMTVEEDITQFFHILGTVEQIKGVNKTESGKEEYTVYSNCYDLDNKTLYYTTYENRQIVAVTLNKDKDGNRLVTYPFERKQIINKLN

| Compound | X-ray crystal structure, 2.10 Å, crystal soaking (lsBSH) | stoichiometry N [1] |
| --- | --- | --- |
| C[C@H](CCC(=O)O)[C@H]1CC[C@H]2[C@@H]3[C@H](O)C[C@@H]4C[C@H](O)CC[C@]4(C)[C@H]3C[C@H](O)[C@]12C [CA, cholic acid] | The lsBSH monomers were obtained bound to substrate GCA or product CA |  |
| bile salt hydrolase from Lactobacillus salivarius (enzyme) |  | 4 |
